What was measured:
[1] = system: iShiloh-8/iGDN F2's; test: Test cross with a known Als1 line, F2 screen for herbicide tolerance (Table 2); assay type: in vivo, Triticum aestivum; details: test cross of Table 2; herbicide not named at this place
Experimental: (§1) Two test-cross experiments of Shiloh-8 with a known Als1 line were performed.

[2] = system: M3 Shiloh plants; test: Tolerance rating of M3 progeny field plots sprayed with imazamox at the three-leaf stage; assay type: in vivo, Triticum aestivum
Experimental: Samples of 1,500 Shiloh variety seeds were each placed in a 1,000 ml beaker and covered with deionized water to at least 1 inch above the seed level. The beakers were then placed in a refrigerator at 4° C. for 15-20 hours. The seed samples were removed from the refrigerator and brought up to room temperature over an approximately 3 hour period by placing the beaker at room temperature. In some cases, the warming process was accelerated by adding deionized water to the beakers.
The deionized water was drained off the seeds, and the beaker was filled with a sodium azide solution to at least 1 inch above the seed level. The sodium azide solution was prepared by adding 27.218 g KH2PO4 to 1,500 ml deionized water, bringing the solution to pH 3 with concentrated H3PO4, and bringing the final solution to 2 L volume with deionized water. Just prior to use, 0.2604 g NaN3 was added, and the solution was kept in the dark. After addition of the sodium azide solution to the seeds, the beakers were incubated in a dark area at room temperature for 2 hours, with occasional stirring.
The sodium azide treatment solution was decanted, and the seed samples were rinsed twice with deionized water. Then the seed samples were covered with deionized water to at least 1 inch above seed level and soaked at room temperature for 1 hour, with occasional stirring. The deionized water was decanted, and the seeds were spread evenly on paper towels to dry. The seeds were planted in the field near Berthoud, Colo. in six 5 feet by 40 feet plots. Approximately 15 pounds of M2 seed were harvested, and approximately 466,000 seeds were planted near Platteville, Colo. The fields were sprayed with 1× (40 g ai ha^−1 (imazamox)) or 2× (80 g ai ha^−1 (imazamox)).
Plants tolerant to the herbicide were identified and transplanted into 1 gallon pots, and put into vernalization for 4 weeks at 45° F. Fourteen single plant selections were made out of the 2× rate area. The tolerant M2 plants were taken out of vernalization, grown out in a Berthoud, Colo. greenhouse, and M3 plants were planted in approximately 4 feet by 5 feet plots near Berthoud, Colo. The plots were sprayed with 80 g ai ha^−1 (imazamox) when the plants were at the three-leaf stage, and the results of the fourteen progenies were rated as shown in Table 1.

[3] = system: iShiloh-8/imi GDN F2's; test: Test cross EXP 2001-2 Winter, F2 screen for herbicide tolerance (Table 3); assay type: in vivo, Triticum aestivum
Experimental: as §1

[4] = system: Shiloh-08; test: Greenhouse screen of Shiloh-08 seedlings with imazamox at the three-leaf stage; assay type: in vivo, Triticum aestivum; details: twelve seeds, 40 g ai ha^−1 imazamox
[5] = system: iSHILOH-08; test: Multiple field imidazolinone herbicide imazamox tolerance comparisons (Table 5); assay type: in vivo, Triticum aestivum
Experimental: (§2) Agronomic and comparative imidazolinone herbicide imazamox tolerance were then evaluated under field conditions. Table 4 summarizes the yield and agronomic evaluations comparing Shiloh-8 and wild type Shiloh plants. These trials were typical cereal evaluation experiments using incomplete randomized block three replication design. Plots were 1.54 m×4.62 m at harvest. Table 5 summarizes multiple field imidazolinone herbicide imazamox tolerance comparisons between Shiloh-8 and the standard tolerant control […]. These plots ranged from a single row 1 m to larger 1.54 m×4.62 m plots.

[6] = system: 9604 (iFEDEL); test: Multiple field imidazolinone herbicide imazamox tolerance comparisons (Table 5), standard tolerant control; assay type: in vivo, Triticum aestivum; details: scale 1-no effect 10-dead
Experimental: as §2

[7] = system: iShiloh-8; test: Test cross EXP 2001-2 Winter, parent check (Table 3); assay type: in vivo, Triticum aestivum; details: number of plants of 8; herbicide not given
Experimental: as §1

[8] = system: imi GDN; test: Test cross EXP 2001-2 Winter, known Als1 line check (Table 3); assay type: in vivo; details: number of plants of 2; herbicide not given
Experimental: as §1

[9] = system: Shiloh; test: Test cross EXP 2001-2 Winter, wild type check (Table 3); assay type: in vivo, Triticum aestivum; details: number of plants of 7; herbicide not given
Experimental: as §1

[10] = number of plants of 167 F2's, herbicide not given

COCc1cnc(C2=NC(C)(C(C)C)C(=O)N2)c(C(=O)O)c1 (stereo not drawn) [imazamox]
Genetic segregation for tolerance in the F2 population [1]: no genetic segregation for tolerance
Tolerance of M3 Shiloh plants to 80 g ai ha^−1 (imazamox) ([2]; line Shiloh-01, 80 g ai ha^−1, three-leaf stage): Medium MR-MS
Tolerance of M3 Shiloh plants to 80 g ai ha^−1 (imazamox) ([2]; line Shiloh-03, 80 g ai ha^−1, three-leaf stage): Discard-Sensitive
Tolerance of M3 Shiloh plants to 80 g ai ha^−1 (imazamox) ([2]; line Shiloh-04, 80 g ai ha^−1, three-leaf stage): Discard-Sensitive
Tolerance of M3 Shiloh plants to 80 g ai ha^−1 (imazamox) ([2]; line Shiloh-05, 80 g ai ha^−1, three-leaf stage): Discard-Sensitive
Tolerance of M3 Shiloh plants to 80 g ai ha^−1 (imazamox) ([2]; line Shiloh-06, 80 g ai ha^−1, three-leaf stage): Discard-Sensitive
Tolerance of M3 Shiloh plants to 80 g ai ha^−1 (imazamox) ([2]; line Shiloh-07, 80 g ai ha^−1, three-leaf stage): Discard-Sensitive
Tolerance of M3 Shiloh plants to 80 g ai ha^−1 (imazamox) ([2]; line Shiloh-08, 80 g ai ha^−1, three-leaf stage): All Good MR-R
Tolerance of M3 Shiloh plants to 80 g ai ha^−1 (imazamox) ([2]; line Shiloh-09, 80 g ai ha^−1, three-leaf stage): Discard-Sensitive
Tolerance of M3 Shiloh plants to 80 g ai ha^−1 (imazamox) ([2]; line Shiloh-10, 80 g ai ha^−1, three-leaf stage): Discard-Sensitive
Tolerance of M3 Shiloh plants to 80 g ai ha^−1 (imazamox) ([2]; line Shiloh-11, 80 g ai ha^−1, three-leaf stage): Discard-Sensitive
Tolerance of M3 Shiloh plants to 80 g ai ha^−1 (imazamox) ([2]; line Shiloh-12, 80 g ai ha^−1, three-leaf stage): Discard-Sensitive
Tolerance of M3 Shiloh plants to 80 g ai ha^−1 (imazamox) ([2]; line Shiloh-13, 80 g ai ha^−1, three-leaf stage): Discard-Sensitive
Tolerance of M3 Shiloh plants to 80 g ai ha^−1 (imazamox) ([2]; line Shiloh-14, 80 g ai ha^−1, three-leaf stage): Medium MR-MS
DGP+ Brown sheath [3, 10]: 0
Dead or Dying growth point [3, 10]: 0
Strong Survivors [3, 10]: 140
Winkled or stunted [3, 10]: 27
Genetic segregation for tolerance in the F2 population ([3]; test cross of Table 3, herbicide not named at this place): no genetic segregation for tolerance
Reaction of Shiloh-08 plants to imazamox screen [4]: confirmed a heritable homozygous reaction
′99-′00 Rate D&O Plateville, CO (early) 4 oz/ac ([5]; 4 oz/ac, early, scale 1-no effect 10-dead): 2
′99-′00 Rate D&O Quinter, KS (early) 4 oz/ac ([5]; 4 oz/ac, early, scale 1-no effect 10-dead, spring application, temperature dropped 19° F. the night following application): 2
′99-′00 Rate D&O Quinter, KS (late) 4 oz/ac ([5]; 4 oz/ac, late, scale 1-no effect 10-dead, spring application, temperature dropped 19° F. the night following application): 5
′99-′00 Rate D&O Plateville, CO (early) 8 oz/ac ([5]; 8 oz/ac, early, scale 1-no effect 10-dead): 3
′99-′00 Rate D&O Quinter, KS (early) 8 oz/ac ([5]; 8 oz/ac, early, scale 1-no effect 10-dead, spring application, temperature dropped 19° F. the night following application): 3
′99-′00 Rate D&O Quinter, KS (late) 8 oz/ac ([5]; 8 oz/ac, late, scale 1-no effect 10-dead, spring application, temperature dropped 19° F. the night following application): 6
Sum ′99 M3 Progeny Rating (8 oz/ac) Field ([5]; 8 oz/ac, field): R-MR
′99-′00 Rate D&O Plateville, CO (early) 4 oz/ac ([6]; 4 oz/ac, early): 1
′99-′00 Rate D&O Quinter, KS (early) 4 oz/ac ([6]; 4 oz/ac, early, spring application, temperature dropped 19° F. the night following application): 1
′99-′00 Rate D&O Quinter, KS (late) 4 oz/ac ([6]; 4 oz/ac, late, spring application, temperature dropped 19° F. the night following application): 8
′99-′00 Rate D&O Plateville, CO (early) 8 oz/ac ([6]; 8 oz/ac, early): 2
′99-′00 Rate D&O Quinter, KS (early) 8 oz/ac ([6]; 8 oz/ac, early, spring application, temperature dropped 19° F. the night following application): 2
′99-′00 Rate D&O Quinter, KS (late) 8 oz/ac ([6]; 8 oz/ac, late, spring application, temperature dropped 19° F. the night following application): 8
DGP+ Brown sheath [7]: 0
Dead or Dying growth point [7]: 0
Strong Survivors [7]: 7
Winkled or stunted [7]: 1
DGP+ Brown sheath [8]: 0
Dead or Dying growth point [8]: 0
Strong Survivors [8]: 1
Winkled or stunted [8]: 1
DGP+ Brown sheath [9]: 7
Dead or Dying growth point [9]: 0
Strong Survivors [9]: 0
Winkled or stunted [9]: 0

Reference: patent publication US9175299B2, “Mutation involved in increased tolerance to imidazolinone herbicides in plants” (BASF AGROCHEMICAL PRODUCTS, B.V., priority 2004, dated 2015)
